The record followed here is PubChem BioAssay AID1996.

The term kinetic solubility denotes the concentration staying in solution when a stock, usually in DMSO, is diluted into the medium.

Values after ≈ are worked out from the molar mass of the structure shown.

The conditions of the data set: buffer; pH 7.4; 200.0 µM.
The molecule `CSc1ccc(C2CC(=O)Nc3c2c(=O)n(C)c(=O)n3C)cc1` (stereo unspecified) yielded a kinetic solubility above 49.7 µg/mL.

In turn, `c1ccc2ncccc2c1` registered a solubility (kinetic) of 12.4 µg/mL (≈ 96 µM).

For the molecule `CS(=O)(=O)N(CC(=O)Nc1ccccc1F)C1CCCCC1`, the solubility (kinetic) worked out at 47.3 µg/mL (≈ 144 µM).

On to `CCCC(C(=O)O)n1c(O)c(C=C2N=c3ccccc3=N2)sc1=S` (stereo unspecified), for which the solubility (kinetic) is above 54.2 µg/mL.

Take `COc1ccccc1C(=O)OCC(=O)NC(=O)NC1CCCC1`: the solubility (kinetic) was above 48.1 µg/mL.

`CCc1ccc(S(=O)(=O)NCc2cccnc2)cc1` had a kinetic solubility of 31.8 µg/mL (≈ 115 µM).

In turn, `CCOc1cc(CN2CCc3c([nH]c4ccccc34)C2)ccc1OC` came in with a kinetic solubility of 32.8 µg/mL (≈ 97.5 µM).

Consider `Cl.OCCN1CCN(c2nc3ccccc3nc2-c2ccccc2)CC1`, for which the kinetic solubility was above 55.6 µg/mL.

Molecule `O=C1NCCCCC1NS(=O)(=O)c1ccc(Cl)cc1` (stereo unspecified) gave a solubility (kinetic) above 45.4 µg/mL.

As to `Cl.Nc1ncnc2sc3c(c12)CCNC3`, the solubility (kinetic) is above 36.4 µg/mL.

On to `Cc1cc(NC(=O)COc2ccc3ccccc3c2)no1`, for which the solubility (kinetic) was 0.6 µg/mL (≈ 2.13 µM).

Take `CC(=O)c1c(-c2ccccc2)c2ccccc2[nH]c1=O`: the kinetic solubility is 15.1 µg/mL (≈ 57.3 µM).

In the case of `O=C(CSc1ncccn1)NCc1cccc(Cl)c1`, the kinetic solubility is above 44.1 µg/mL.

Regarding `Cc1cc(C)c2c(CC(=O)NC3CCS(=O)(=O)C3)coc2c1` (stereo unspecified), the kinetic solubility is 48.2 µg/mL (≈ 150 µM).

The molecule `CCc1ccc(NC(=O)COC(=O)CC2CCCC2)cc1` had a kinetic solubility of 26 µg/mL (≈ 89.8 µM).

`Oc1ccc(/C=C/c2ccc3cccc(O)c3n2)cc1Br`: the kinetic solubility stood at 1.1 µg/mL (≈ 3.21 µM).

For `CC(=O)NC(CC(=O)OCc1ccc([N+](=O)[O-])cc1)c1ccccc1` (stereo unspecified), the kinetic solubility was above 51.4 µg/mL.

`COc1ccc(N2CCCC2)c(NC(=O)COc2ccccc2)c1`: the kinetic solubility was found to be 3.8 µg/mL (≈ 11.6 µM).

The molecule `O=c1[nH]c2ccccc2o1` showed a solubility (kinetic) above 20.3 µg/mL.

Take `Cc1csc(=O)n1CCC(=O)OCc1nnc(-c2ccccc2Cl)o1`: the solubility (kinetic) is above 57 µg/mL.

Molecule `Cc1cc(SCC(=O)c2ccccc2)nc(=O)[nH]1` displayed a solubility (kinetic) of 16.7 µg/mL (≈ 64.2 µM).

For the molecule `S=c1[nH]nc(-c2ccco2)n1-c1ccc(Cl)cc1`, the solubility (kinetic) was above 41.7 µg/mL.

In the case of `O=C(c1cc(-c2ccncc2)nc2ccccc12)N1CCN(c2ncccn2)CC1`, the solubility (kinetic) came out at 55.4 µg/mL (≈ 140 µM).

Molecule `CSc1ncccc1C(=O)Nc1nc2ccc(F)cc2s1` had a kinetic solubility of 1.8 µg/mL (≈ 5.64 µM).

Molecule `N#Cc1cn(Cc2ccccc2)c(=O)[nH]c1=O` yielded a solubility (kinetic) above 34.1 µg/mL.

Molecule `CC(=O)c1cccc(NC(=O)c2sc(Cl)nc2C)c1` displayed a kinetic solubility above 44.2 µg/mL.

Molecule `O[C@@H]1CN(Cc2ccccc2Cl)CC[C@H]1N1CCOCC1` had a solubility (kinetic) of 39.9 µg/mL (≈ 128 µM).

`Cc1ccc(NC(=O)C2CCCO2)c(Br)c1` (stereo unspecified) had a kinetic solubility of 37.5 µg/mL (≈ 132 µM).

For the molecule `O=C(CN1C(=O)NC2(CCCCCCC2)C1=O)NCc1ccccc1`, the kinetic solubility came out at 47.7 µg/mL (≈ 139 µM).

`CC1C(=O)N2CCCc3cc(S(=O)(=O)N4CCCCC4)cc1c32` (stereo unspecified) showed a kinetic solubility above 50.2 µg/mL.

The molecule `Cc1cc(C(=O)OCC(=O)N2CCOCC2)ccc1[N+](=O)[O-]` gave a kinetic solubility above 46.2 µg/mL.

`c1ccc2sc(C3CCNCC3)nc2c1` came in with a solubility (kinetic) above 32.7 µg/mL.

`O=C(Cn1ccc([N+](=O)[O-])n1)Nc1nc2ccccc2s1` had a solubility (kinetic) above 45.5 µg/mL.

On to `CCCCN1C(=O)c2ccc(C(=O)OCC(=O)NCCc3ccc(S(N)(=O)=O)cc3)cc2C1=O`, for which the kinetic solubility turned out to be 42.1 µg/mL (≈ 86.4 µM).

Consider `O=C(CN1C(=O)S/C(=C\c2ccccn2)C1=O)Nc1ccccc1`, for which the kinetic solubility came to 1.5 µg/mL (≈ 4.42 µM).

The molecule `O=C(CCNC(=O)c1ccccc1)Nc1cccnc1` returned a solubility (kinetic) above 40.4 µg/mL.

For `CCN1CC2([N+](=O)[O-])CC=C(Cl)C([N+](=O)[O-])(C1)C2` (stereo unspecified), the kinetic solubility is 28.4 µg/mL (≈ 103 µM).

Take `CN1CCC(N(C)c2ccc(C(N)=O)cc2[N+](=O)[O-])CC1`: the kinetic solubility was determined as 40.1 µg/mL (≈ 137 µM).

For `O=C(NC1CCCC1)c1cc2c(=O)n3ccccc3nc2s1`, the kinetic solubility came to 11.2 µg/mL (≈ 35.7 µM).

The molecule `COc1cccc(C(=O)N2CCN(C(=O)C3CC3)CC2)c1` returned a kinetic solubility of 40.7 µg/mL (≈ 141 µM).

Consider `CCC(CC)C(=O)c1c[nH]c(C(=O)NCc2ccc(F)cc2)c1`, for which the solubility (kinetic) is 1 µg/mL (≈ 3.16 µM).
